System: PC-3, LnCap and CCD-27sk
Conditions: 5 days
Description: In conjunction with testing for antibody binding the cytotoxic effect of the hybridoma supernatants were tested in the same cell lines: PC-3, LnCap and CCD-27sk. The Live/Dead cytotoxicity assay was obtained from Molecular Probes (Eu, OR). The assays were performed according to the manufacturer's instructions with the changes outlined below. Cells were plated before the assay at the predetermined appropriate density. After 2 days, 100 μl of supernatant from the hybridoma microtitre plates were transferred to the cell plates and incubated in a 5 percent CO2 incubator for 5 days. […] After 5 days of treatment, the plates were then emptied by inverting and blotting dry. Room temperature DPBS (Dulbecco's phosphate buffered saline) containing MgCl2 and CaCl2 was dispensed into each well from a multichannel squeeze bottle, tapped 3 times, emptied by inversion and then blotted dry. 50 μl of the fluorescent calcein dye diluted in DPBS containing MgCl2 and CaCl2 was added to each well and incubated at 37° C. in a 5% CO2 incubator for 30 minutes. The plates were read in a Perkin-Elmer HTS7000 fluorescence plate reader and the data was analyzed in Microsoft Excel.

| Compound | cytotoxicity of positive controls |
| --- | --- |
| [N-]=[N+]=[N-] [NaN3, sodium azide] | generally produced cytotoxicity as expected |
| C[C@@H]1C[C@@H]([C@H](O)CC2CC(=O)NC(=O)C2)C(=O)[C@@H](C)C1 [cycloheximide] | generally produced cytotoxicity as expected |

Reference: US7348413B2, “Cancerous disease modifying antibodies” (Arius Research Inc., priority 2004, dated 2008)
